According to patent US10376499B2, “Combination therapy for treatment of resistant bacterial infections” (priority 2014, dated 2019):
Where a name gives a salt, the structure may show the parent alone. Read-outs that look alike come from different tables or passages of the source.

Key:
A. baumannii [1] = test: Neutropenic mouse thigh and lung infection models; details: neutropenic CD-1 mice, subcutaneous q3h, sulbactam+compound 1 at 4:1 ratio, 24 h, isolate containing AmpC, OXA-66, OXA-72, TEM-1, FIG. 4
Enterobacteriaceae = test: organism not typed; type: cell-based
A. baumannii [2] = test: MIC, 20 diverse recent strains of A. baumannii (Example 10); type: cell-based, Acinetobacter baumannii; details: N 20 A. baumannii strains
Citrobacter spp = test: MIC, recent Enterobacteriaceae clinical isolates: Citrobacter spp (Examples 7, 11); type: cell-based; details: for MIC: read-out: MIC
Klebsiella pneumoniae = test: MIC, recent Enterobacteriaceae clinical isolates: Klebsiella pneumoniae (Examples 7, 11)
Enterobacter cloacae = test: MIC, recent Enterobacteriaceae clinical isolates: Enterobacter cloacae (Examples 7, 11); type: cell-based
Escherichia coli = test: MIC, recent Enterobacteriaceae clinical isolates: Escherichia coli (Examples 7, 11); details: Escherichia coli

CC1=C[C@@H]2CN(C(=O)N2OS(=O)(=O)O)[C@@H]1C(N)=O [Compound 1, (2S,5R)-2-carbamoyl-3-methyl-7-oxo-1,6-diazabicyclo[3.2.1]oct-3-en-6-yl hydrogen sulfate]
efficacy (mean delta log CFU) (A. baumannii [1]): recover the activity
MIC50 (Enterobacteriaceae): 0.5 µg/mL
MIC90 (Enterobacteriaceae): 4 µg/mL
MIC range (Enterobacteriaceae; Total Enterobacteriaceae, N 59): 0.125 to 32 µg/mL
MIC50 (A. baumannii [2]): 64 µg/mL
MIC90 (A. baumannii [2]): > 64 µg/mL
MIC Max (A. baumannii [2]): > 64 µg/mL
MIC Min (A. baumannii [2]): 16 µg/mL
MIC (Citrobacter spp; Citrobacter braakii ARC3660, CTX-M-15): 0.25 µg/mL
MIC (Citrobacter spp; Citrobacter freundii ARC3522, AmpC, TEM-1, CMY65): 0.5 µg/mL
MIC (Citrobacter spp; Citrobacter freundii ARC3883, KPC-2): 32 µg/mL
MIC (Citrobacter spp; Citrobacter freundii ARC3884, KPC-2): 4 µg/mL
MIC (Citrobacter spp; Citrobacter freundii ARC3885, AmpH, TEM-1, SHV-5, CMY-6, CMY-13): 4 µg/mL
MIC (Citrobacter spp; Citrobacter koseri ARC2001, ESBL): 0.5 µg/mL
MIC (Citrobacter spp; Citrobacter koseri ARC2002, ESBL): 0.5 µg/mL
MIC range (Citrobacter spp; Citrobacter spp, N 7): 0.25 to 4 µg/mL
MIC50 (Citrobacter spp; Citrobacter spp, N 7, read-out: MIC50): 0.5 µg/mL
MIC90 (Citrobacter spp; Citrobacter spp, N 7, read-out: MIC90): 4 µg/mL
MIC50 (Klebsiella pneumoniae): 1 µg/mL
MIC90 (Klebsiella pneumoniae): 4 µg/mL
MIC (Klebsiella pneumoniae; Klebsiella pneumoniae ARC4414, SHV-11): 2 µg/mL
MIC (Klebsiella pneumoniae; Klebsiella pneumoniae ARC4420, SHV-11, SHV-12, DHA-1, OXA-1): 1 µg/mL
MIC (Klebsiella pneumoniae; Klebsiella pneumoniae ARC4427, SHV-1, OXA-1): 0.25 µg/mL
MIC (Klebsiella pneumoniae; Klebsiella pneumoniae ARC4434, SHV-11): 2 µg/mL
MIC (Klebsiella pneumoniae; Klebsiella pneumoniae ARC4435, SHV-157): 0.25 µg/mL
MIC (Klebsiella pneumoniae; Klebsiella pneumoniae ARC4446, SHV-11): 2 µg/mL
MIC (Klebsiella pneumoniae; Klebsiella pneumoniae ARC4451, SHV-11, KPC-3): 0.5 µg/mL
MIC (Klebsiella pneumoniae; Klebsiella pneumoniae ARC4457, SHV-11, DHA-1): 0.5 µg/mL
MIC (Klebsiella pneumoniae; Klebsiella pneumoniae ARC4460, SHV-11, CTX-M15, OXA-1, NDM-1): 4 µg/mL
MIC (Klebsiella pneumoniae; Klebsiella pneumoniae ARC4467, SHV-33, TEM-1, OXA-1, DHA-1): 4 µg/mL
MIC (Klebsiella pneumoniae; Klebsiella pneumoniae ARC4468, SHV-1): 8 µg/mL
MIC (Klebsiella pneumoniae; Klebsiella pneumoniae ARC4476, SHV-11, KPC-2, OXA-9[W117*]): 4 µg/mL
MIC (Klebsiella pneumoniae; Klebsiella pneumoniae ARC4480, SHV-27): 0.5 µg/mL
MIC (Klebsiella pneumoniae; Klebsiella pneumoniae ARC4483, SHV-11): 1 µg/mL
MIC (Klebsiella pneumoniae; Klebsiella pneumoniae ARC4484, SHV-168): 1 µg/mL
MIC (Klebsiella pneumoniae; Klebsiella pneumoniae ARC4488, SHV-11, CTX-M15, OXA-1, TEM-1): 0.25 µg/mL
MIC (Klebsiella pneumoniae; Klebsiella pneumoniae ARC4490, SHV-11, CTX-M15, KPC-2, OXA-1): 0.5 µg/mL
MIC (Klebsiella pneumoniae; Klebsiella pneumoniae ARC4495, SHV-60, LAP-2): 4 µg/mL
MIC (Enterobacter cloacae; Enterobacter cloacae ARC4438, AmpC+, read-out: MIC): 2 µg/mL
MIC (Enterobacter cloacae; Enterobacter cloacae ARC4439, AmpC+, LAP-2+, read-out: MIC): 0.5 µg/mL
MIC (Enterobacter cloacae; Enterobacter cloacae ARC4444, AmpC+, MIR-8[I175L]): 4 µg/mL
MIC (Enterobacter cloacae; Enterobacter cloacae ARC4458, AmpC+, ACT-2[V312M]): 8 µg/mL
MIC (Enterobacter cloacae; Enterobacter cloacae ARC4461, AmpC+, TEM-1, read-out: MIC): 0.25 µg/mL
MIC (Enterobacter cloacae; Enterobacter cloacae ARC4462, AmpC+, read-out: MIC): 0.5 µg/mL
MIC (Enterobacter cloacae; Enterobacter cloacae ARC4473, SHV-5+, AmpC+, DHA-1+, TEM-1+, read-out: MIC): 0.5 µg/mL
MIC (Enterobacter cloacae; Enterobacter cloacae ARC4489, AmpC+, read-out: MIC): 1 µg/mL
MIC (Enterobacter cloacae; Enterobacter cloacae ARC4492, AmpC+, read-out: MIC): 0.5 µg/mL
MIC (Enterobacter cloacae; Enterobacter cloacae ARC4494, OXA-1+, DHA-1+, AmpC+, read-out: MIC): 0.25 µg/mL
MIC90 (Enterobacter cloacae; N 10): 4 µg/mL
MIC range (Enterobacter cloacae; N 10): 0.25 to 8 µg/mL
MIC50 (Enterobacter cloacae; N 10, read-out: MIC50): 0.5 µg/mL
MIC (Escherichia coli): 0.125 µg/mL
MIC50 (Escherichia coli): 0.5 µg/mL
MIC90 (Escherichia coli): 4 µg/mL
MIC (Escherichia coli; ATCC25922, Escherichia coli ARC4, none (ATCC 25922) CLSI control): 8 µg/mL
MIC (Escherichia coli; Escherichia coli ARC4416, CTX-M-14+, TEM-1+): 0.5 µg/mL
MIC (Escherichia coli; Escherichia coli ARC4418, CTX-M-14+, CMY-2+): 0.25 µg/mL
MIC (Escherichia coli; Escherichia coli ARC4419, SHV-12+): 0.25 µg/mL
MIC (Escherichia coli; Escherichia coli ARC4421, CTX-M-55, TEM-1+, CMY-2+): 0.25 µg/mL
MIC (Escherichia coli; Escherichia coli ARC4429, TEM-1+, CMY-2+): 0.25 µg/mL
MIC (Escherichia coli; Escherichia coli ARC4432, CTX-M-14+, TEM-1+, CMY-2+): 0.25 µg/mL
MIC (Escherichia coli; Escherichia coli ARC4436, CTX-M-14+, TEM-1+): 0.25 µg/mL
MIC (Escherichia coli; Escherichia coli ARC4449, CMY-2+, TEM-1+): 0.5 µg/mL
MIC (Escherichia coli; Escherichia coli ARC4450, TEM-1+, OXA-1+, CMY-2+): 2 µg/mL
MIC (Escherichia coli; Escherichia coli ARC4452, SHV-12+): 0.25 µg/mL
MIC (Escherichia coli; Escherichia coli ARC4455, SHV-12+): 0.25 µg/mL
MIC (Escherichia coli; Escherichia coli ARC4465, CMY-2+): 0.25 µg/mL
MIC (Escherichia coli; Escherichia coli ARC4471, CMY-2+, OXA-1+, TEM-1+): 4 µg/mL
MIC (Escherichia coli; Escherichia coli ARC4472, CMY-2+, TEM-1+): 2 µg/mL
MIC (Escherichia coli; Escherichia coli ARC4477, CTX-M-15+, TEM-1+): 2 µg/mL
MIC (Escherichia coli; Escherichia coli ARC4478, CTX-M-15+, CMY-2+): 0.5 µg/mL
MIC (Escherichia coli; Escherichia coli ARC4479, CMY-42+, OXA-1+, OXA-9+, TEM-1+): 32 µg/mL
MIC (Escherichia coli; Escherichia coli ARC4485, CMY-2+, OXA-1+, CTX-M-15+): 0.5 µg/mL
MIC (Escherichia coli; Escherichia coli ARC4487, SHV-5+, DHA-1+, TEM-1+, OXA-1+, CMY-2+): 4 µg/mL
